Results published in patent publication US3935199A, “Iminomethylindolines” (Mead Johnson & Company, priority 1974, dated 1976).
Where a name gives a salt, the structure may show the parent alone. Read-outs that look alike come from different tables or passages of the source.

Key:
[1] = test system: pentobarbital treated cats; assay: pentobarbital antagonism test in the cat; assay type: in vivo; details: comparison of 4-ethyl-4-methyl-2,6-piperidinedione and the two preferred compounds
Protocol: (§1) The compounds of the present invention effectively stimulate the central nervous system of mammals. Compounds having biological activity of this type are generally referred to as being analeptic agents.
The pentobarbital antagonism test for the compounds of the present invention in the cat is carried out in the following fashion. A cat of either sex wherein a chronically indwelling intravenous cannula has been previously surgically inserted, is placed in an observation cubicle measuring 2 ft. × 2ft. × 2ft. The cat is allowed to move about freely at the end of a leash. A dose of 12 milligrams per kilogram of body weight of pentobarbital sodium in aqueous solution is infused at the rate of approximately 2 milligrams per kilogram per minute via tubing contained in the leash. One-half hour after the start of this infusion the cat is in a state of light anesthesia characterized by unconsciousness, immobility, relaxed nictating membrane, and is not responsive to handling but has active pinneal, palpebral and paw-pinch withdrawal reflexes. At this time the 1-iminomethylindoline compound is infused in concentration of 10 milligrams per milliter at a rate of 0.2 milliters per minute until (a) consciousness is restored, (b) a total of 25 milligrams per kilogram of body weight of test compound is administered or (c) mounting toxicity interferes. Consciousness is recognized by the presence of alertness to surroundings as indicated by the ability of the cat's eyes to follow a movement of a nearby object and in its attempts to assume an upright position.
Representative compounds of the present invention wherein a dose of up to 25 milligrams per kilogram of body weight restored consciousness to pentobarbital treated cats are Examples 1-4, 7-10, 12, 15, 17-20, (Table III).

[2] = test system: chloral hydrate treated mice; assay: chloral hydrate antagonism test in the mouse (sleeping time); assay type: in vivo, mouse (male albino mice); details: oral 20 mg/kg, followed by 300 mg/kg i.p. chloral hydrate, compared to saline-treated control group, read-out: Percent Reduction in Sleeping Time at 20 mg/kg Body Weight
Protocol: as §1
According to the chloral hydrate antagonism test, groups of 20 fasted male albino mice are administered an oral dose of 20 milligrams per kilogram of the 1-iminomethylindoline test compound. This is followed immediately by an intraperitoneal dose of 300 milligrams per kilogram of chloral hydrate. The average reduction in sleeping time compared to a saline-treated control group is a measure of the central nervous system stimulant action of the test compound and is as follows for representative 1-iminomethylindolines of this invention.

[3] = test system: chloral hydrate treated mice; assay: as above; assay type: in vivo, mouse (male albino mice); details: po, read-out: dose producing a 50 percent reduction of the sleeping time
motor activity in rats = assay: activity cage technique (motor stimulation in rats); assay type: in vivo, rat
From the text: The activity cage technique described by J. W. Kissel, Science, 139, 1224 (1963), was used to measure motor stimulation in rats. […] Since motor stimulation is generally associated with analeptic action, the instant compounds of this invention are unique in the respect that while they are analeptic agents they are not motor stimulants.

[4] = test system: phenylquinone writhing syndrome in mice; assay: prevention of phenylquinone writhing (analgesic activity); assay type: in vivo; details: Mus musculus, sc, 10 min, read-out: ED50 (prevention of phenylquinone writhing)
Protocol: The prevention of this syndrome is employed as a measure of analgesic activity -- Hendershot and Forsaith, J. Pharmacol. Exp. Therap. […] In this test, groups of 10 to 20 mice are injected subcutaneously with graduated doses of the test compound. At the time of a predetermined peak effect, the animals are administered a dose of 2.5 milligrams per kilogram of body weight of phenylquinone intraperitoneally. The latter injection induces writhing episodes in the mice. […] A log dose-response curve is prepared and the dose of the test compound required to decrease the number of writhing episodes of 50 percent is estimated by interpolation.

[5] = mouse, 300 mg/kg chloral hydrate, comparative test
[6] = subcutaneous, phenylquinone 2.5 mg/kg i.p., episodes counted during 10 minutes

SMILES: CC1(C)CCC(N2CCc3ccccc32)=N1 [Example 9, 1-[2-(5,5-Dimethyl-1-pyrrolinyl)]-indoline hydrochloride]
- comparison of pentobarbital antagonism: restoring consciousness to a pentobarbital treated cat [1]: substantially equiactive
- inhibition in vivo at 20 mg/kg [2]: 65%
- ED50 [3, 5]: 15 mg/kg
- motor activity (motor activity in rats): did not produce an increase in motor activity

SMILES: CC(=O)c1ccc2c(c1)CCN2C1=NCCCCC1 [Example 18, 5-Acetyl-1-[7-(3,4,5,6-tetrahydro-2H-azepinyl)]indoline hydrochloride]
- ED50 [4, 6]: 16.2 mg/kg
- inhibition in vivo at 20 mg/kg [2]: 17%

SMILES: CN=CN1CCc2cc([N+](=O)[O-])ccc21.Cl [Example 19, 1-[(Methylimino)methyl]-5-nitro-indoline hydrochloride]
- ED50 [4, 6]: 10.3 mg/kg

SMILES: CC(=O)Oc1ccccc1C(=O)O [Aspirin, reference compound]
- ED50 [4]: 20 mg/kg

SMILES: CN=C(C)N1CCc2ccccc21.Cl [Example 3, 1-[1-(Methylimino)ethyl]indoline hydrochloride]
- ED50 [4, 6]: 15.8 mg/kg
- inhibition in vivo at 20 mg/kg [2]: 24%

SMILES: CC1CCC(N2CCc3ccccc32)=N1 (centres unmarked) [Example 8, 1-[2-(5-Methyl-1-pyrrolinyl)]indoline hydrochloride]
- ED50 [4, 6]: 13 mg/kg
- inhibition in vivo at 20 mg/kg [2]: 36%

SMILES: Cl.c1ccc2c(c1)CCN2C1=NCCN1 [Example 13, 1-(2-Imidazolin-2-yl)indoline hydrochloride]
- ED50 [4, 6]: 33.2 mg/kg

SMILES: CN=CN1CCc2ccccc21.Cl [Example 1, 1-[(Methylimino)methyl]indoline hydrochloride]
- ED50 [4, 6]: 21.8 mg/kg

SMILES: c1ccc2c(c1)CCN2C1=NCCC1 [Example 7, 1-[2-(1-Pyrrolinyl)]indoline hydrochloride]
- ED50 [4, 6]: 3.85 mg/kg
- inhibition in vivo at 20 mg/kg [2]: 10%

SMILES: CN=C(NC)N1CCc2ccccc21 [Example 4, 1-(N,N'-Dimethylamidino)indoline]
- inhibition in vivo at 20 mg/kg [2]: 24%

SMILES: CCC1(C)CC(=O)NC(=O)C1 [4-ethyl-4-methyl-2,6-piperidinedione, reference compound]
- comparison of pentobarbital antagonism: restoring consciousness to a pentobarbital treated cat [1]: substantially equiactive
- ED50 ([3]; Mus musculus): 14.4 mg/kg

SMILES: c1ccc2c(c1)CCN2C1=NCCSC1 [Example 12, 1-[5,6-Dihydro-3-(2H-thiazinyl)]indoline hydrochloride]
- ED50 [4, 6]: 11.3 mg/kg

SMILES: c1ccc2c(c1)CCN2C1=NCCCCC1 [Example 11, 1-[7-(3,4,5,6-Tetrahydro-2H-azepinyl)]-indoline hydrochloride]
- ED50 [4, 6]: 17.1 mg/kg

SMILES: Cl.c1ccc2c(c1)CCN2C1=NCCCC1 [Example 10, 1-(3,4,5,6-Tetrahydro-2-pyridyl)-indoline hydrochloride]
- ED50 [4, 6]: 5.7 mg/kg

SMILES: CC(C)N=CN1CCc2ccccc21 [Example 2, 1-[(Isopropylimino)methyl]indoline hydrochloride hemihydrate]
- inhibition in vivo at 20 mg/kg [2]: 38%

SMILES: CC(=O)c1ccc2c(c1)CCN2C1=NCCC1 [Example 17, 5-Acetyl-1-[2-(1-pyrrolinyl)]indoline]
- ED50 [4, 6]: 7.7 mg/kg
- comparison of pentobarbital antagonism: restoring consciousness to a pentobarbital treated cat [1]: substantially equiactive
- inhibition in vivo at 20 mg/kg [2]: 62%
- ED50 [3, 5]: 10 mg/kg
- motor activity (motor activity in rats): did not produce an increase in motor activity

SMILES: O=[N+]([O-])c1ccc2c(c1)CCN2C1=NCCCCC1 [Example 21, 1-[7-(3,4,5,6-Tetrahydro-2H-azepinyl)]-5-nitroindoline hydrochloride]
- inhibition in vivo at 20 mg/kg [2]: 50%
